Reference: publication PMC5007443, “TNIK inhibition abrogates colorectal cancer stemness” (Nature Communications, 2016)

How the values were obtained:
KDR = KDR (Homo sapiens, UniProt P35968); assay: Kinase selectivity profiling, Kinase insert domain receptor; format: biochemical; details: read-out: Percentage inhibition of KDR
Description: (§1) The selectivity of compounds against a panel of 50 human protein kinases was assessed using a non-radiometric assay.

HCT116 cells [1] = assay: Immunoblotting of CSC, mesenchymal and embryonal stem cell markers in HCT116 cells; format: cell-based, human; details: HCT116, 3 μM, 48 or 72 h
Description: Protein samples were fractionated by SDS–PAGE and blotted onto Immobilon-P membranes (Millipore) as described previously. After incubation with the primary antibodies (listed in Supplementary Table 4) at 4 °C overnight, the blots were detected with the relevant horseradish peroxidase-conjugated anti-mouse or anti-rabbit IgG antibody (Cell Signaling Technology) and Western lighting ECL Pro (PerkinElmer). Signals were visualized with the LAS-4010 system (GE Healthcare). Uncropped versions of the blots in Figs 2e and 3f are shown in Supplementary Fig. 15.

IKKβ = IKKβ (Homo sapiens, UniProt O14920); assay: Kinase selectivity profiling, I-kappa-B kinase-β; format: biochemical; details: read-out: Percentage inhibition of IKKβ
Description: as §1

DLD-1 cells [2] = assay: In vivo tumorigenicity of pretreated DLD-1 cells in NOD/ShiJic-scid mice; design: species or system mouse; details: DLD-1, short-term in vitro treatment
Description: (§2) After washing off the compounds, 10,000, 1,000, 100 or 10 viable cells in culture medium containing 50% Matrigel (BD Biosciences) were injected subcutaneously into the flanks of NOD/ShiJic-scid Jcl (6-week-old male) mice. The number of mice that developed tumours was counted, and the frequency of cells with tumour-forming capability was calculated using the ELDA software.

[3] = test system: patient-derived colorectal cancer spheroids #6; assay: Limiting dilution analysis of sphere reformation, spheroids #6; format: cell-based, human; details: spheroids #6, 3-day Treatment
Description: Spheroids were gently dissociated into single cells with the use of StemPro Accutase (Thermo Fisher Scientific), and 1,000, 100, 10 or 1 viable cells were seeded into each well of a 96-well U-bottom PrimeSurface plate (Supplementary Figs 10b and 12). Experiments were performed in triplicate and repeated at least two times.

TYRO3 = TYRO3 (Homo sapiens, UniProt Q06418); assay: Kinase selectivity profiling, Tyro3 receptor tyrosine kinase; format: biochemical; details: read-out: Percentage inhibition of TYRO3
Description: as §1

HCT116 cells [4] = assay: In vivo tumorigenicity of pretreated HCT116 cells in NOD/ShiJic-scid mice; design: species or system mouse; details: HCT116, short-term in vitro treatment
Description: as §2

HCT116 cells [5] = assay: Soft-agar colony-formation assay; format: cell-based; details: Homo sapiens, HCT-116, 336 h; HCT116, 14 days
Description: One milliliter of 0.33% agar (Lonza) in culture medium containing 1.5 × 10^4 cells was plated onto 1 ml of solidified base agar (0.5%) in each well of six-well clusters. The top agar layer was covered with culture medium containing serially diluted compounds. The medium was replaced every three days. Cell number was determined colorimetrically at 450–650 nm using the Cell Count Reagent SF (Nacalai Tesque). IC50 values were obtained by fitting a four-parameter dose–response curve to normalized data using GraphPad Prism version 5 (GraphPad software; Fig. 3b). Experiments were performed in triplicate and repeated at least two times.

HCT116 cells [6] = assay: Cell cycle analysis by flow cytometry; format: cell-based, human; details: HCT116, 3 μM
Description: Cells were dissociated with Accutase, fixed with 70% EtOH at −20 °C, stained with Guava Cell Cycle reagent (Merck-Millipore) in accordance with the manufacturer's instructions, and analysed using a Guava easy Cyte HT flow cytometer (Merck-Millipore). Cell doublets were eliminated by doublet discrimination gating. Data were analyzed using FLOWJO version 10 software (Treestar; Fig. 3e). Experiments were performed in triplicate and repeated at least two times.

PIM1 = PIM1 (Homo sapiens, UniProt P11309); assay: Kinase selectivity profiling, Pim-1 oncogene; format: biochemical; details: read-out: Percentage inhibition of PIM1
Description: as §1

ABL = ABL (Homo sapiens, UniProt P00519); assay: Kinase selectivity profiling, c-Abl oncogene 1; format: biochemical; details: read-out: Percentage inhibition of ABL
Description: as §1

p38α = p38α (Homo sapiens, UniProt Q16539); assay: Kinase selectivity profiling, Mitogen-activated protein kinase 14; format: biochemical; details: read-out: Percentage inhibition of p38α
Description: as §1

DLD-1 cells [7] = assay: Limiting dilution analysis of sphere formation, DLD-1; format: cell-based, human
Description: One million HCT116 and DLD-1 cells were seeded onto 60-mm plates and treated with vehicle (DMSO) or compounds (0.1, 0.3 or 1.0 μM) for either 3 or 4 days. After washing off the compounds, the cells were dissociated to single cells in serum-free DMEM/F12 medium (Thermo Fisher Scientific) containing B27 (Thermo Fisher Scientific), 20 ng ml^−1 epidermal growth factor (EGF; Thermo Fisher Scientific), 10 ng ml^−1 basic fibroblast factor (bFGF; Thermo Fisher Scientific), 5 μg ml^−1 insulin (Thermo Fisher Scientific), 0.4% bovine serum albumin (Sigma-Aldrich) and 2 mM L-glutamine (Thermo Fisher Scientific). One hundred, 10 or 1 viable (determined by trypan-blue dye exclusion) cells were seeded into each well of a 96-well U-bottom PrimeSurface plate (Sumitomo Bakelite). Ten days later, the number of wells showing sphere formation was counted. The frequency of sphere-forming cells was calculated using ELDA software (http://bioinf.wehi.edu.au/software/elda/index.html) provided by the Walter and Eliza Hall Institute (Fig. 5c; Supplementary Table 2). Experiments were performed in triplicate and repeated at least two times.

Chain of ABL (P00519 whole entry): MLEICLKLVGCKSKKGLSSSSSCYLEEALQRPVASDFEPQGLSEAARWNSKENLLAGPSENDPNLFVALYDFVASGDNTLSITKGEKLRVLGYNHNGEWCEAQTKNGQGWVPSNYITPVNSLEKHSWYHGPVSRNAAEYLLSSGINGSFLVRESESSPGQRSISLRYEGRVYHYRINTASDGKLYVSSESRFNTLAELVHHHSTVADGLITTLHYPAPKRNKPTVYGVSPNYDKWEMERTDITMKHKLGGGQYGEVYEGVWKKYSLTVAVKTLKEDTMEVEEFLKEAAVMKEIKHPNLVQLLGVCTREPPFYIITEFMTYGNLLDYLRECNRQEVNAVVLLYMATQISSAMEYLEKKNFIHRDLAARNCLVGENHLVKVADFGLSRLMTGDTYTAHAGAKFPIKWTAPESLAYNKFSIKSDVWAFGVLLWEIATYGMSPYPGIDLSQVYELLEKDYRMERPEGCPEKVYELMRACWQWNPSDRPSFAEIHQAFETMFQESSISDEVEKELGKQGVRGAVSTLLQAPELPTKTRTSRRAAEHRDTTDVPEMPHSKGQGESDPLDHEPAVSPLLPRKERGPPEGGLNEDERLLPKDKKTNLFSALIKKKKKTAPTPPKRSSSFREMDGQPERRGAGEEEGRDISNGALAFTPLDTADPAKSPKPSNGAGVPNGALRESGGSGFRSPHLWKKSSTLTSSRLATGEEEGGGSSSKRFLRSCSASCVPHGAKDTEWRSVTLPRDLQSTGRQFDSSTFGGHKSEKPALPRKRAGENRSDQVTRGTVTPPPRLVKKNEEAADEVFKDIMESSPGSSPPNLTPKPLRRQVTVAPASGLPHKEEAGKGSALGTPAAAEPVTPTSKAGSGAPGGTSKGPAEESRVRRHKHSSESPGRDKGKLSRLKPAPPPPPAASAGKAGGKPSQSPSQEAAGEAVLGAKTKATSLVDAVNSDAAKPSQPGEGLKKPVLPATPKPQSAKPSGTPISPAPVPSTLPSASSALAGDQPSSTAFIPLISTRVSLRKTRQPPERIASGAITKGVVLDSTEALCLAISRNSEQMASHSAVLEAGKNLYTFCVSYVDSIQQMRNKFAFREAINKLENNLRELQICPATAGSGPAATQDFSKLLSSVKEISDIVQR
Chain of KDR (P35968 20-1356): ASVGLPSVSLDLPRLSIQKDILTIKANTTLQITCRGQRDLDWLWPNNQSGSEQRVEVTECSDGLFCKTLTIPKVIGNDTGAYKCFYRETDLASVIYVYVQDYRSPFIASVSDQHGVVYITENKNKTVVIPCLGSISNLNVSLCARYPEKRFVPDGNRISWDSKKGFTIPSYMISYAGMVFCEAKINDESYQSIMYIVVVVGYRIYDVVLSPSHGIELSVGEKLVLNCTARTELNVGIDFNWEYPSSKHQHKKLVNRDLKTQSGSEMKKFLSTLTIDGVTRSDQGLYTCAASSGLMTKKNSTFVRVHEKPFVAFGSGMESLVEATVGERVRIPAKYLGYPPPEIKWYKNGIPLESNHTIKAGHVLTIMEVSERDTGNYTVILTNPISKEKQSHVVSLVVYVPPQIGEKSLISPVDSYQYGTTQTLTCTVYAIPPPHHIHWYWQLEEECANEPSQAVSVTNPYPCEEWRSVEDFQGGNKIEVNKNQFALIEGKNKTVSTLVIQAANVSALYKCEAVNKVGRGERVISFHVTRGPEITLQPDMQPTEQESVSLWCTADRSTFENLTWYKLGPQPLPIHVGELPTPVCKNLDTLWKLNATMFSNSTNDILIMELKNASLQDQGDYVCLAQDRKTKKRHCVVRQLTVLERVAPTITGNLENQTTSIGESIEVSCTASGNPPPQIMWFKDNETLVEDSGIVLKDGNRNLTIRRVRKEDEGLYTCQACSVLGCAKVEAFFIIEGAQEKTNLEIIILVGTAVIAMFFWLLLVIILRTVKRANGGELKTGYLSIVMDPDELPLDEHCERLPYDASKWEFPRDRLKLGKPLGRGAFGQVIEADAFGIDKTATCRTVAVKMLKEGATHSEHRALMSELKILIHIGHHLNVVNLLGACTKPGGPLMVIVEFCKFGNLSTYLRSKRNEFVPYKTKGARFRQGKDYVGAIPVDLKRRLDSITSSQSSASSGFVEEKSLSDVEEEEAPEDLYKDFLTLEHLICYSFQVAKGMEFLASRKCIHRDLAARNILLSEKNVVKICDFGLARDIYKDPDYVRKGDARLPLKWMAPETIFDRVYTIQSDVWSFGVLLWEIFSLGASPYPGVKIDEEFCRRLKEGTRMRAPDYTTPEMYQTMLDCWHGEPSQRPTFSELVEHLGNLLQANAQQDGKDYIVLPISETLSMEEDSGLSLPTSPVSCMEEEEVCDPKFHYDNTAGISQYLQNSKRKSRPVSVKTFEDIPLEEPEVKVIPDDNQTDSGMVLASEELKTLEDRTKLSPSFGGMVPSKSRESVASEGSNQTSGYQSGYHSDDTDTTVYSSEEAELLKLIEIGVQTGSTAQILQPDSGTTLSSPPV
Chain of p38α (Q16539 whole entry): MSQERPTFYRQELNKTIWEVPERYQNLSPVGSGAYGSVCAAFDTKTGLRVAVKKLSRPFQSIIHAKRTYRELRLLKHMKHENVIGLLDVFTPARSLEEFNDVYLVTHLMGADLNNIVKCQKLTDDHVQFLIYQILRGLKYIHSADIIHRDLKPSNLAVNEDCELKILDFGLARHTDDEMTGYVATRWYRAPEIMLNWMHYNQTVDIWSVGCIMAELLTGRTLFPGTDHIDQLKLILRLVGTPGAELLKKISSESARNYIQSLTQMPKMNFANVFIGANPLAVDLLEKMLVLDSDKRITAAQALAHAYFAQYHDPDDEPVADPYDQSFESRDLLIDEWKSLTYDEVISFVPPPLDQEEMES
Chain of TYRO3 (Q06418 41-890): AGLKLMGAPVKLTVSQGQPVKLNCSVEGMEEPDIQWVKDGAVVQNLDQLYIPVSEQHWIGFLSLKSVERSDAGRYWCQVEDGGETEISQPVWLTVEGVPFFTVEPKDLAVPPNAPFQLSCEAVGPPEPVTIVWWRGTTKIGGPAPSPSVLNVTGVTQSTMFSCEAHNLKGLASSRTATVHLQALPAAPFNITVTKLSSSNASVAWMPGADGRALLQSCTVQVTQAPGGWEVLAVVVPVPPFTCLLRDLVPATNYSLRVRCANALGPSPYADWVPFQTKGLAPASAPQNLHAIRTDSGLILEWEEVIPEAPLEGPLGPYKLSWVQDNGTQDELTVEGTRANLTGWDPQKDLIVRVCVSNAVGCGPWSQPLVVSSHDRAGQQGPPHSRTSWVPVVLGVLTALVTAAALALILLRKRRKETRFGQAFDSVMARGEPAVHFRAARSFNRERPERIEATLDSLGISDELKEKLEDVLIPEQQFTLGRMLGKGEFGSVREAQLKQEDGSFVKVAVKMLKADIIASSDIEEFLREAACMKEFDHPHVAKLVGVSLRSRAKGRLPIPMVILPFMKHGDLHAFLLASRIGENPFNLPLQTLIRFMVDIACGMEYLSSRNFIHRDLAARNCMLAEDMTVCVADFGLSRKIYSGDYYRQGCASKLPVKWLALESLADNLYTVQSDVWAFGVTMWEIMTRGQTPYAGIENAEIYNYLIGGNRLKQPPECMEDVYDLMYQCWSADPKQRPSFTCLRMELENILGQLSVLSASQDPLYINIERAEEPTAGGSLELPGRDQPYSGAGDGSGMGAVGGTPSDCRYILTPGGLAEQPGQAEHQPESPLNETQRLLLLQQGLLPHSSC
Chain of IKKβ (O14920 whole entry): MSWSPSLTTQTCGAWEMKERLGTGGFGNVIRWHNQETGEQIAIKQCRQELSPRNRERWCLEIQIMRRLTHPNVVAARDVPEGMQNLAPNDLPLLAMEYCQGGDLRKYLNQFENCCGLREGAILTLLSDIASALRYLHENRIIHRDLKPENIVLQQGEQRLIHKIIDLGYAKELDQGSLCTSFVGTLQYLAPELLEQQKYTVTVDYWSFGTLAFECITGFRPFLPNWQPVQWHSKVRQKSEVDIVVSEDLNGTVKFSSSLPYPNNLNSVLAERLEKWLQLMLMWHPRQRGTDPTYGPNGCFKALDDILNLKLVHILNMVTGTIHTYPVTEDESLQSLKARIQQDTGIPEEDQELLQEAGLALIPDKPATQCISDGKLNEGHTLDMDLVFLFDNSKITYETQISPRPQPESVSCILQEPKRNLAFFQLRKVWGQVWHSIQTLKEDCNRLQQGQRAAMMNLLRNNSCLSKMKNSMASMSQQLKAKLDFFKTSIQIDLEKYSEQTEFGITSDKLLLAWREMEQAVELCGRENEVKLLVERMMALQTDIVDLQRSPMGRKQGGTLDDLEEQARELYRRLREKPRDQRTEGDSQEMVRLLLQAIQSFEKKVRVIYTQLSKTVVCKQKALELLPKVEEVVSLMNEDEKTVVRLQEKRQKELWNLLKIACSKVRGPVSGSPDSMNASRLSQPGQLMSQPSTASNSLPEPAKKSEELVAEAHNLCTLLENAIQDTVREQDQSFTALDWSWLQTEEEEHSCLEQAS
Chain of PIM1 (P11309 whole entry): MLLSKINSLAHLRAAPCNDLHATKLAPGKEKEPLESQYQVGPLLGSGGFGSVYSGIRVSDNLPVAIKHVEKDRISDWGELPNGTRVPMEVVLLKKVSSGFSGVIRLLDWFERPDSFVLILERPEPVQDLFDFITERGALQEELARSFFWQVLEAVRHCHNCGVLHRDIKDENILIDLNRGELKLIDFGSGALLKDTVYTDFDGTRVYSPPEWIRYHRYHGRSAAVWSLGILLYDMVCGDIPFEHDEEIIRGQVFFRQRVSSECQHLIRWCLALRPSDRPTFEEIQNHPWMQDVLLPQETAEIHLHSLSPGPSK

O[C@H]1CC[C@@H](Oc2cccc3cnc(Nc4ccc5nc[nH]c5c4)nc23)CC1 [NCB-0846, cis-4-(2-(3H-benzo[d]imidazol-5-ylamino)quinazolin-8-yloxy)cyclohexanol]
inhibition at 0.1 µM (KDR): 71.1%
downregulation of expression of putative colorectal CSC markers CD44, CD133, ALDH1 (HCT116 cells [1]): downregulated
embryonal stem cell markers (Oct4, Nanog and Sox2) (HCT116 cells [1]): not affected
expression of mesenchymal markers (Slug, Snail, Twist, Smad2 and Vimentin) (HCT116 cells [1]): reduced
inhibition at 0.1 µM (IKKβ): 6.8%
tumour formation (DLD-1 cells [2]): significantly reduced
Sphere-containing wells/total wells ([3]; 0.1 μM, 1 cell per well): 12/96
Sphere-containing wells/total wells ([3]; 0.1 μM, 10 cells per well): 77/96
Sphere-containing wells/total wells ([3]; 0.1 μM, 100 cells per well): 96/96
Sphere-containing wells/total wells ([3]; 0.1 μM, 1000 cells per well): 96/96
Sphere-containing wells/total wells ([3]; 0.3 μM, 1 cell per well): 3/96
Sphere-containing wells/total wells ([3]; 0.3 μM, 10 cells per well): 72/96
Sphere-containing wells/total wells ([3]; 0.3 μM, 100 cells per well): 96/96
Sphere-containing wells/total wells ([3]; 0.3 μM, 1000 cells per well): 96/96
Sphere-containing wells/total wells ([3]; 1.0 μM, 1 cell per well): 2/96
Sphere-containing wells/total wells ([3]; 1.0 μM, 10 cells per well): 49/96
Sphere-containing wells/total wells ([3]; 1.0 μM, 100 cells per well): 94/96
Sphere-containing wells/total wells ([3]; 1.0 μM, 1000 cells per well): 96/96
inhibition at 0.1 µM (TYRO3): 48.9%
tumour formation (HCT116 cells [4]): significantly reduced
IC50 (HCT116 cells [5]): 190 nM
>4N (%) (HCT116 cells [6]; 24 h): 6.1%
G0/G1 (%) (HCT116 cells [6]; 24 h): 20.6%
G2/M (%) (HCT116 cells [6]; 24 h): 30.6%
S (%) (HCT116 cells [6]; 24 h): 14.1%
SubG1 (%) (HCT116 cells [6]; 24 h): 28.6%
>4N (%) (HCT116 cells [6]; 48 h): 3.1%
G0/G1 (%) (HCT116 cells [6]; 48 h): 18.3%
G2/M (%) (HCT116 cells [6]; 48 h): 20.1%
S (%) (HCT116 cells [6]; 48 h): 11.1%
SubG1 (%) (HCT116 cells [6]; 48 h): 47.4%
inhibition at 0.1 µM (PIM1): -3.1%
inhibition at 0.1 µM (ABL): 16.9%
inhibition at 0.1 µM (p38α): -3.5%
Sphere-containing wells/total wells (DLD-1 cells [7]; DLD-1, 3-day treatment, 0.1 μM, 1 cell per well): 55/96
Sphere-containing wells/total wells (DLD-1 cells [7]; DLD-1, 3-day treatment, 0.1 μM, 10 cells per well): 95/96
Sphere-containing wells/total wells (DLD-1 cells [7]; DLD-1, 3-day treatment, 0.1 μM, 100 cells per well): 96/96
Sphere-containing wells/total wells (DLD-1 cells [7]; DLD-1, 3-day treatment, 0.3 μM, 1 cell per well): 23/96
Sphere-containing wells/total wells (DLD-1 cells [7]; DLD-1, 3-day treatment, 0.3 μM, 10 cells per well): 86/96
Sphere-containing wells/total wells (DLD-1 cells [7]; DLD-1, 3-day treatment, 0.3 μM, 100 cells per well): 96/96
Sphere-containing wells/total wells (DLD-1 cells [7]; DLD-1, 3-day treatment, 1.0 μM, 1 cell per well): 3/96
Sphere-containing wells/total wells (DLD-1 cells [7]; DLD-1, 3-day treatment, 1.0 μM, 10 cells per well): 25/96
Sphere-containing wells/total wells (DLD-1 cells [7]; DLD-1, 3-day treatment, 1.0 μM, 100 cells per well): 77/96
Sphere-containing wells/total wells (DLD-1 cells [7]; DLD-1, 4-day treatment, 0.1 μM, 1 cell per well): 39/96
Sphere-containing wells/total wells (DLD-1 cells [7]; DLD-1, 4-day treatment, 0.1 μM, 10 cells per well): 92/96
Sphere-containing wells/total wells (DLD-1 cells [7]; DLD-1, 4-day treatment, 0.1 μM, 100 cells per well): 96/96
Sphere-containing wells/total wells (DLD-1 cells [7]; DLD-1, 4-day treatment, 0.3 μM, 1 cell per well): 46/96
Sphere-containing wells/total wells (DLD-1 cells [7]; DLD-1, 4-day treatment, 0.3 μM, 10 cells per well): 90/96
Sphere-containing wells/total wells (DLD-1 cells [7]; DLD-1, 4-day treatment, 0.3 μM, 100 cells per well): 95/96
Sphere-containing wells/total wells (DLD-1 cells [7]; DLD-1, 4-day treatment, 1.0 μM, 1 cell per well): 7/96
Sphere-containing wells/total wells (DLD-1 cells [7]; DLD-1, 4-day treatment, 1.0 μM, 10 cells per well): 34/96
Sphere-containing wells/total wells (DLD-1 cells [7]; DLD-1, 4-day treatment, 1.0 μM, 100 cells per well): 96/96
sphere formation activity (DLD-1 cells [7]; DLD-1, short-term (3–4 days) treatment): significantly abrogated
